Results published in US20200339537A1, “NOVEL COMPOUND AS INHIBITOR AGAINST BINDING OF PF34 PROTEIN TO NEDD4-1 PROTEIN AND USE THEREOF” (ENHANCEDBIO INC., priority 2017, published 2020).

These compounds were tested against T1, binding between p34 protein and NEDD4-1 protein (Homo sapiens, UniProt P46934+Q9UHV2) (assay: Inhibitory activity on binding between p34 and NEDD4-1, FRET (HTRF) assay). Conditions: compound 10 μM; 1×PBS pH 7.4, 0.1% BSA, 2% DMSO; 384-well; 10 µM.
T1 construct: FLAG or 6xHis (known only from the detection antibodies)
T1 sequence (P46934 1-1319): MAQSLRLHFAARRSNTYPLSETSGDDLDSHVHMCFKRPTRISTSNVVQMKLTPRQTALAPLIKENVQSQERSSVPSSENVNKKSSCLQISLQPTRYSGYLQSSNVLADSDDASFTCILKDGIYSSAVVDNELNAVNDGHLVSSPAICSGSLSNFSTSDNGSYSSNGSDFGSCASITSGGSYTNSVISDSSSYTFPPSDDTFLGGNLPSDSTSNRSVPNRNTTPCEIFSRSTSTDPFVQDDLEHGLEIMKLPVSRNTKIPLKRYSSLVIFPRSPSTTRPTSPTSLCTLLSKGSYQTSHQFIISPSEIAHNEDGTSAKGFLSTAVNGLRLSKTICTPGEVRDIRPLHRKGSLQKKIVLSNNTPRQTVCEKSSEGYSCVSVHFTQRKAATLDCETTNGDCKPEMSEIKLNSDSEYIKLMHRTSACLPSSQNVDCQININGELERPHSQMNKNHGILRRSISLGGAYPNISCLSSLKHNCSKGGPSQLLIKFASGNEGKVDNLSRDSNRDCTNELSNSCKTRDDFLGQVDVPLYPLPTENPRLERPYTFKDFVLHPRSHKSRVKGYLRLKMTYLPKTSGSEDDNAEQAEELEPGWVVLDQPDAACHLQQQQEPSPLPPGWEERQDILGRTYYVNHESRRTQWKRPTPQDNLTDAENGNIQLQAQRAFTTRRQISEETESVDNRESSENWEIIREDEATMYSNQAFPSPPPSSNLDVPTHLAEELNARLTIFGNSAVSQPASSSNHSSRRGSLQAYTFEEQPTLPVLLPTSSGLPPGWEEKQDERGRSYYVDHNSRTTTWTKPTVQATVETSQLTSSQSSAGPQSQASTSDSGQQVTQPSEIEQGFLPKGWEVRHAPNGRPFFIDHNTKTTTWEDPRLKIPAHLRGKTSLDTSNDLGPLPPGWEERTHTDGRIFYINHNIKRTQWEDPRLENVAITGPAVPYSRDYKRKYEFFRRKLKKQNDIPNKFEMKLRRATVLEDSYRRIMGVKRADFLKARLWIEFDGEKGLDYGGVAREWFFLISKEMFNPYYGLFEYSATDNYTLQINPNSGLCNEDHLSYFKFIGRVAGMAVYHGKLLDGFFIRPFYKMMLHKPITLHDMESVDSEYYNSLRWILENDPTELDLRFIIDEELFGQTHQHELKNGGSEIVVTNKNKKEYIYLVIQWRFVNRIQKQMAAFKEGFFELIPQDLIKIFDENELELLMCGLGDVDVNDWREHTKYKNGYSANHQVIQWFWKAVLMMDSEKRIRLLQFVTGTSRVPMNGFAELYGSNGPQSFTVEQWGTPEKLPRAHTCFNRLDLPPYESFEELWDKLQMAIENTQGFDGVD
T1 sequence (Q9UHV2 1-236): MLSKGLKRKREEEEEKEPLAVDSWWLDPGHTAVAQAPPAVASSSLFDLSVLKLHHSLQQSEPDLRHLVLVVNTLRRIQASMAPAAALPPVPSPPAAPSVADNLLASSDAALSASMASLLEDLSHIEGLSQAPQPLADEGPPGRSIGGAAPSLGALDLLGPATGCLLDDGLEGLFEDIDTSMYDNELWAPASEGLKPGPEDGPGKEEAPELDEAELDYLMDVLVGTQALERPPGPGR
Experimental: Inhibitory activity of the compound on binding between p34 and NEDD4-1 was evaluated using p34 protein and NEDD4-1 protein based on the HTRF technology developed by Cisbio. In this assay, a fluorescence resonance energy transfer (FRET) signal was measured in the presence of terbium-labeled anti-FLAG antibody and d2-labeled anti-6XHis antibody. Experiments were performed in 384-well plates under a condition of 1×PBS pH 7.4, 0.1% BSA, and 2% DMSO. A background signal was measured in the absence of the p34-NEDD4-1 proteins, and a non-inhibiting signal was measured with addition of only a solvent (2% DMSO). […] Subsequently, inhibitory activity of the compound on p34-NEDD4-1 was calculated in %.

| Structure (SMILES) | FRET result (Inhibition % @10 μM) |
| --- | --- |
| O=C(NCc1nc2ccccc2[nH]1)C1CCN(Cc2c[nH]c3ccc(C(F)(F)F)cc23)CC1 [Example 8] | 49.4% |
| O=C(NCc1nccs1)C1CCN(Cc2ccc3[nH]ccc3c2)CC1 [Example 19] | 32.1% |

Same assay, conditions: pH 7.4, compound 10 μM; 1×PBS pH 7.4, 0.1% BSA, 2% DMSO; 384-well

| Structure (SMILES) | inhibition at 10 µM |
| --- | --- |
| O=C(NCc1nc2cc(Cl)ccc2[nH]1)C1CCN(Cc2c[nH]c3ccc(Cl)cc23)CC1 [Example 4] | 30.6% |
| O=C(NCc1nc2cc(F)ccc2[nH]1)C1CCN(Cc2c[nH]c3ccc(Cl)cc23)CC1 [Example 6] | 36.6% |
| O=C(NCc1nccs1)C1CCN(Cc2ccc3[nH]ccc3c2)CC1 [Example 12] | 39.2% |
| CC(NC(=O)C1CCN(Cc2ccc3[nH]ccc3c2)CC1)c1nc2ccccc2[nH]1 (stereo not shown) [Example 13] | 38.9% |
| O=C(NCc1nc2ccc(F)cc2[nH]1)C1CCN(Cc2ccc3[nH]ccc3c2)CC1 [Example 14] | 44.1% |
| O=C(NCc1nc2cc(F)c(F)cc2[nH]1)C1CCN(Cc2ccc3[nH]ccc3c2)CC1 [Example 16] | 47.2% |
| O=C(C1CCN(Cc2ccc3[nH]ccc3c2)CC1)N1CCn2cc(C(F)(F)F)nc2C1 [Example 17] | 48% |
| O=C(NCc1nc2ccccc2o1)C1CCN(Cc2ccc3[nH]ccc3c2)CC1 [Example 18] | 30% |
| Cc1ccc2nc(CNC(=O)C3CCN(Cc4ccc5[nH]ccc5c4)CC3)[nH]c2c1 [Example 20] | 51.5% |
| Cc1ccc2[nH]c(C(C)NC(=O)C3CCN(Cc4c[nH]c5ccc(C(F)(F)F)cc45)CC3)nc2c1 (stereo not shown) [Example 29] | 59.1% |
| O=C(C1CCN(Cc2c[nH]c3ccc(C(F)(F)F)cc23)CC1)N1CCn2cc(C(F)(F)F)nc2C1 [Example 30] | 59.1% |

The next lines start with the values.

| inhibition at 10 µM | Structure (SMILES) |
| --- | --- |
| 42.4% | Cc1ccc2nc(C(C)NC(=O)C3CCN(Cc4c[nH]c5ccc(Cl)cc45)CC3)[nH]c2c1 (stereo not shown) [Example 2] |
| 59% | CCC(NC(=O)C1CCN(Cc2c[nH]c3ccc(Cl)cc23)CC1)c1nc2ccccc2[nH]1 (stereo not shown) [Example 7] |
| 58.4% | O=C(NCc1ncc[nH]1)C1CCN(Cc2c[nH]c3ccc(Cl)cc23)CC1 [Example 9] |
| 39% | O=C(NCc1cnccn1)C1CCN(Cc2c[nH]c3ccc(Cl)cc23)CC1 [Example 10] |
| 39.1% | O=C(NCc1nccs1)C1CCN(Cc2c[nH]c3ccc(Cl)cc23)CC1 [Example 11] |
| 60.4% | O=C(NCc1ncc[nH]1)C1CCN(Cc2ccc3[nH]ccc3c2)CC1 [Example 15] |
| 56.6% | O=C(NC(Cc1ccccc1)c1nc2ccccc2[nH]1)C1CCN(Cc2ccc3[nH]ccc3c2)CC1 (stereo not shown) [Example 21] |
| 48.1% | O=C(NCc1nc2ccccc2[nH]1)C1CCN(Cc2c[nH]cn2)CC1 [Example 22] |
| 38.2% | O=C(NCc1nc2ccccc2[nH]1)C1CCN(Cc2ccc3[nH]ccc3c2)CC1 [Example 23] |
| 53% | CCC(NC(=O)C1CCN(Cc2ccc3[nH]ccc3c2)CC1)c1nc2ccccc2[nH]1 (stereo not shown) [Example 24] |
| 42% | O=C(NCc1cnccn1)C1CCN(Cc2ccc3[nH]ccc3c2)CC1 [Example 26] |
| 34.5% | O=C(NCc1nccs1)C1CCN(C(=O)c2ccc3[nH]ccc3c2)CC1 [Example 28] |
| 36.6% | O=C(NCc1cnccn1)C1CCN(Cc2c[nH]c3ccc(C(F)(F)F)cc23)CC1 [Example 38] |
| 42.8% | Cn1c(CNC(=O)C2CCN(Cc3c[nH]c4ccc(C(F)(F)F)cc34)CC2)nc2ccccc21 [Example 40] |
| 42.8% | O=C(NCc1nc2ccccc2[nH]1)C1CCN(Cc2c[nH]c3ccc(C(F)(F)F)cc23)CC1 [Example 41] |
| 42.9% | Cn1c(CNC(=O)C2CCN(Cc3c[nH]c4ccccc34)CC2)nc2ccccc21 [Example 46] |
| 30.5% | O=C(NCc1nc2ccccc2[nH]1)C1CCN(Cc2c[nH]c3ccc(F)cc23)CC1 [Example 47] |
| 56.2% | Cn1cc(CN2CCC(C(=O)NCc3nc4ccccc4[nH]3)CC2)c2cc(F)ccc21 [Example 51] |
| 32.4% | CN(Cc1nc2ccccc2[nH]1)C(=O)C1CCN(Cc2c[nH]c3ccccc23)CC1 [Example 52] |
| 56.2% | Cc1ccc2nc(C(C)NC(=O)C3CCN(Cc4c[nH]c5ccccc45)CC3)[nH]c2c1 (stereo not shown) [Example 56] |
| 38.4% | O=C(NCc1nc2ccccc2[nH]1)C1CCN(Cc2c[nH]c3cc(F)c(F)cc23)CC1 [Example 60] |
| 52.3% | Cn1c(CNC(=O)N2CCN(Cc3c[nH]c4ccc(Cl)cc34)CC2)nc2ccccc21 [Example 63] |
| 53.1% | CC(NC(=O)N1CCN(Cc2c[nH]c3ccc(Cl)cc23)CC1)c1nc2ccccc2[nH]1 (stereo not shown) [Example 65] |
| 52.4% | O=C(NCc1nc2ccccc2[nH]1)N1CCN(Cc2c[nH]c3ccc(Cl)cc23)CC1 [Example 75] |

Each compound was assayed on PTEN (lipid phosphatase activity) in human colon cancer cell line SW620 (assay: cells). Conditions: Homo sapiens, SW-620, 48 h, compound 5 μM, PTEN immunoprecipitation, diC8-PIP3 substrate, Biomol Green, read-out: PTEN activity (relative fold @5 μM).
Type: cell-based

| Structure (SMILES) | fold induction at 5 µM |
| --- | --- |
| Cc1cc2nc(CNC(=O)C3CCN(Cc4c[nH]c5ccc(Cl)cc45)CC3)[nH]c2cc1C [Example 3] | 1.5 |
| O=C(NCc1nc2cc(Cl)ccc2[nH]1)C1CCN(Cc2c[nH]c3ccc(Cl)cc23)CC1 [Example 4] | 1.8 |
| CC(NC(=O)C1CCN(Cc2c[nH]c3ccc(Cl)cc23)CC1)c1nc2ccccc2[nH]1 (stereo not shown) [Example 5] | 1.5 |
| O=C(NCc1nc2cc(F)ccc2[nH]1)C1CCN(Cc2c[nH]c3ccc(Cl)cc23)CC1 [Example 6] | 3 |
| CC(NC(=O)C1CCN(Cc2ccc3[nH]ccc3c2)CC1)c1nc2ccccc2[nH]1 (stereo not shown) [Example 13] | 3.2 |
| O=C(NCc1nc2ccc(F)cc2[nH]1)C1CCN(Cc2ccc3[nH]ccc3c2)CC1 [Example 14] | 3.8 |
| O=C(NCc1nc2cc(F)c(F)cc2[nH]1)C1CCN(Cc2ccc3[nH]ccc3c2)CC1 [Example 16] | 1.5 |
| O=C(C1CCN(Cc2ccc3[nH]ccc3c2)CC1)N1CCn2cc(C(F)(F)F)nc2C1 [Example 17] | 2.2 |
| O=C(NCc1nc2ccccc2o1)C1CCN(Cc2ccc3[nH]ccc3c2)CC1 [Example 18] | 2 |
| O=C(NCc1nccs1)C1CCN(Cc2ccc3[nH]ccc3c2)CC1 [Example 19] | 2.5 |
| Cc1ccc2nc(CNC(=O)C3CCN(Cc4ccc5[nH]ccc5c4)CC3)[nH]c2c1 [Example 20] | 1.9 |
| Cn1c(CNC(=O)C2CCN(Cc3ccc4[nH]ccc4c3)CC2)nc2ccccc21 [Example 27] | 1.8 |
| Cc1ccc2[nH]c(C(C)NC(=O)C3CCN(Cc4c[nH]c5ccc(C(F)(F)F)cc45)CC3)nc2c1 (stereo not shown) [Example 29] | 2.2 |
| O=C(C1CCN(Cc2c[nH]c3ccc(C(F)(F)F)cc23)CC1)N1CCn2cc(C(F)(F)F)nc2C1 [Example 30] | 1.5 |
| O=C(NCc1cncs1)C1CN(Cc2c[nH]c3ccc(C(F)(F)F)cc23)C1 [Example 36] | 1.7 |
| O=C(NCc1nc2cc(F)c(F)cc2[nH]1)C1CCN(Cc2c[nH]c3ccc(F)cc23)CC1 [Example 48] | 1.6 |
| CC(NC(=O)C1CCN(Cc2c[nH]c3ccccc23)CC1)c1nc2ccccc2[nH]1 (stereo not shown) [Example 49] | 1.9 |
| CC(NC(=O)C1CCN(Cc2c[nH]c3ccc(F)cc23)CC1)c1nc2ccccc2[nH]1 (stereo not shown) [Example 50] | 2.6 |
| O=C(NCc1nc2cc(F)c(F)cc2[nH]1)C1CCN(Cc2c[nH]c3ccccc23)CC1 [Example 53] | 1.8 |
| Cn1cc(CN2CCC(C(=O)NCc3nc4ccccc4[nH]3)CC2)c2ccccc21 [Example 59] | 2 |
| CN(Cc1nc2ccccc2n1C)C(=O)N1CCN(Cc2c[nH]c3ccc(Cl)cc23)CC1 [Example 69] | 1.6 |
| O=C(NCc1nccs1)N1CCN(Cc2c[nH]c3ccc(Cl)cc23)CC1 [Example 76] | 1.7 |
| Cc1[nH]c2ccc(CN3CCN(C(=O)NCc4nccs4)CC3)cc2c1C [Example 88] | 2.2 |

Same assay, conditions: compound 5 μM, 48 hours, PTEN immunoprecipitation, diC8-PIP3 substrate, Biomol Green

| Structure (SMILES) | PTEN activity (relative fold @5 μM) |
| --- | --- |
| CN(Cc1nc2ccccc2n1C)C(=O)N1CCN(Cc2c[nH]c3ccc(Cl)cc23)CC1 [Example 70] | 2.1 fold |
